Data on 25 compounds can be found in patent US11312722B2, “Hsp90 inhibitors and uses thereof” (TRUSTEES OF BOSTON UNIVERSITY, priority 2019, dated 2022).

Molecules are shown by their SMILES. Read-outs that look alike come from different tables or passages of the source.

Experiment [1] relates to C. neoformans (Strain H99). Nature of the experiment: Antifungal sensitivity testing (MIC), C. neoformans H99. Format: cell-based. The conditions noted are these: for MIC80 / MIC90: Cryptococcus neoformans; for MIC80: read-out: C. neo MIC80; for MIC90: read-out: C. neo MIC90. On the procedure:
Color scale bar: no growth inhibition (green) to complete inhibition (black). Each shaded box represents the mean of technical duplicates. The experiment was repeated as an independent biological replicate to confirm results.
Minimum inhibitory concentration (MIC) value for compounds against C. neoformans (Strain H99) was determined in dose-response format, in technical duplicate. Experiments were conducted in RPMI medium at 37° C. for 48 h. Relative viable cell number was measured by standard dye reduction (resazurin) assay.
Yeast strains and culture conditions. Strains used in this study were C. albicans CaCi2 (clinical isolate 2), [58] SC5314, [59] and C. neoformans H99. […] Active cultures were maintained on solid (2% agar) yeast extract peptone (YPD, 1% yeast extract, 2% bactopeptone, 2% glucose) at 4° C. for no more than one month.
Antifungal sensitivity testing. […] Each compound was tested in duplicate in at least two independent experiments. […] Plates were photographed after 24 h of incubation at 30° C.

The target of experiment [2] is Hsp90 (C. albicans whole cell lysate) (Candida albicans (strain SC5314 / ATCC MYA-2876) (Yeast), UniProt P46598). Nature of the experiment: biochemical. Format: binding. The conditions noted are these: for C. alb Active (biochemical): Yes/No call. On the procedure:
All analogs were assessed for Hsp90 binding affinity using a fluorescence polarization (FP)-based equilibrium competition assay in fungal and human whole cell lysates. […] Using lysates, the relative potency and selectivity for fungal Hsp90 was measured versus the entire ensemble of human Hsp90 isoforms in microplate format using small amounts of test materials. […] Thermal shift assays were performed under saturating ligand conditions, i.e. equimolar concentrations (10 μM) of protein and ligand. As a result, they provided qualitative evidence of target binding, but not a quantitative measurement of ligand affinity. For quantitation, a ligand dissociation constant (Ki) for key compounds was also determined using purified NBDs in FP assays and KD measurements were made by surface plasmon resonance (SPR) using a Biacore instrument. Finally, all analogs were assessed for whole cell antifungal activity against the pathogens C. albicans and C. neoformans.
FP assays. Whole cell lysates were prepared for FP assays as described previously. Total protein concentration of human and yeast lysates was determined by Bradford assay. […] Serial dilutions of test Hsp90 inhibitors were then assayed under these same conditions to monitor loss of fluorescence polarization as an indicator of probe displacement from Hsp90. […] Titrations of test compound in 25 μL of binding buffer (supplemented with 0.1 mg/mL bovine gamma globulin), were mixed with an equal volume of freshly prepared whole-cell lysate spiked with Cy3-GdA (0.1 nM). Plates were incubated at room temperature for 4.5 h to achieve equilibrium binding for the geldanamycin-based probe. […] Non-linear 4-parameter curve fitting of raw displacement data was performed in GraphPad Prism 5.0 to determine EC50 values as a measure of relative Hsp90-binding affinity. Results were normalized to the value determined for GdA in lysate of each cell type.
Statistical methods. […] In calculating the error of selectivity determinations, the fractional error of measurements in each species was summed to yield a composite error for the derived ratio.

[3] abbreviates: FP competition, whole cell lysate, duplicate, screening experiment, read-out: C. albicans EC50.

Turning to `COc1ccc(-c2cc(Nc3cc(O)cc(O)c3C(=O)N3Cc4ccccc4C3)n(C)n2)cc1` [Compound 121, 4-(2,3-Dihydro-1H-isoindole-2-carbonyl)-5-((3-(4-methoxyphenyl)-1-methyl-1H-pyrazol-5-yl)amino)benzene-1,3-diol], in experiment [1], the MIC80 is greater than 25 µM and the MIC90 was greater than 25 µM. For the same compound, in experiment [1] (Yes/No call), the “C. neo Active (cells)” value was “No”.

As to `COc1ccc(Cn2nc(C)cc2Nc2cc(O)cc(O)c2C(=O)N(C)Cc2ccccc2)cc1` [Compound 37, N-Benzyl-2,4-dihydroxy-6-((1-((4-methoxyphenyl)methyl)-3-methyl-1H-pyrazol-5-yl)amino)-N-methylbenzamide], in experiment [2] (setting [3]), the half-maximal effective concentration (EC50) is greater than 6 µM.

For `Cc1cccc(-c2cc(Nc3cc(O)cc(O)c3C(=O)N3Cc4ccccc4C3)n(C)n2)c1` [Compound 109, 4-(2,3-Dihydro-1H-isoindole-2-carbonyl)-5-((1-methyl-3-(3-methylphenyl)-1H-pyrazol-5-yl)amino)benzene-1,3-diol], the “C. alb Active (biochemical)” value in experiment [2] is “Yes”. In experiment [1], the MIC80 is greater than 25 µM and the MIC90 is greater than 25 µM.

On to `Cn1nc(-c2cccc(F)c2)cc1Nc1cc(O)cc(O)c1C(=O)N1Cc2ccccc2C1` [ACSM01345], for which the “C. alb Active (biochemical)” value in experiment [2] is “Yes”. Further, in experiment [2] (read-out: C. alb EC50), the EC50 was determined as 1.25 µM.

As to `CC(C)(C)n1nc(-c2ccccc2)cc1Nc1cc(O)cc(O)c1C(=O)N1Cc2cn[nH]c2C1` [Compound 95, 5-((1-tert-Butyl-3-phenyl-1H-pyrazol-5-yl)amino)-4-(1H,4H,5H,6H-pyrrolo[3,4-c]pyrazole-5-carbonyl)benzene-1,3-diol], the “C. alb Active (biochemical)” value in experiment [2] is listed as “Yes”. Besides, in experiment [1], the MIC80 is greater than 25 µM and the MIC90 was greater than 25 µM.

Consider `Cn1nc(-c2cccc(C(F)(F)F)c2)cc1Nc1cc(O)cc(O)c1C(=O)N1Cc2cccnc2C1` [Compound 116, 5-((1-Methyl-3-(3-(trifluoromethyl)phenyl)-1H-pyrazol-5-yl)amino)-4-(5H,6H,7H-pyrrolo[3,4-b]pyridine-6-carbonyl)benzene-1,3-diol], for which the “C. alb Active (biochemical)” value in experiment [2] is “Yes”. Also, in experiment [1], the MIC80 is greater than 25 µM and the MIC90 is greater than 25 µM.

In the case of `COc1ccccc1-c1cc(Nc2cc(O)cc(O)c2C(=O)N2CC[C@H](N)C2)n(C)n1` [ACSM01271], the “C. alb Active (biochemical)” value in experiment [2] is given as “Yes”. In experiment [2] (read-out: C. alb EC50), the EC50 came out at 5.34 µM. Moreover, in experiment [1], the “C. neo MIC80” value is greater than 25 µM and the “C. neo MIC90” value is greater than 25 µM.

`Cc1cccc(-c2cc(Nc3cc(O)cc(O)c3C(=O)N3Cc4cccnc4C3)n(C)n2)c1` [Compound 110, 5-((1-Methyl-3-(3-methylphenyl)-1H-pyrazol-5-yl)amino)-4-(5H,6H,7H-pyrrolo[3,4-b]pyridine-6-carbonyl)benzene-1,3-diol]: the “C. alb Active (biochemical)” value in experiment [2] was “Yes”. Also, in experiment [1], the MIC80 is greater than 25 µM and the MIC90 was greater than 25 µM.

In the case of `Cn1nccc1Nc1cc(O)cc(O)c1C(=O)N1Cc2cn[nH]c2C1` [Compound 58, 5-((1-Methyl-1H-pyrazol-5-yl)amino)-4-(1H,4H,5H,6H-pyrrolo[3,4-c]pyrazole-5-carbonyl)benzene-1,3-diol], the “C. alb Active (biochemical)” value in experiment [2] is reported as “Yes”. Moreover, in experiment [1], the MIC80 is greater than 25 µM and the MIC90 is greater than 25 µM.

For the compound `COc1cccc(-c2cc(Nc3cc(O)cc(O)c3C(=O)N3Cc4cccc(F)c4C3)n(C)n2)c1` [ACSM01130], in experiment [2], the “C. alb Active (biochemical)” value is on record as “Yes”. For the same compound, the EC50 in experiment [2] (read-out: C. alb EC50) is 5.82 µM. In addition, in experiment [1], the “C. neo MIC80” value is greater than 50 µM and the “C. neo MIC90” value is greater than 50 µM.

For the compound `Cn1nc(-c2cc(F)ccc2F)cc1Nc1cc(O)cc(O)c1C(=O)N1Cc2ccccc2C1` [ACSM01270], the “C. alb Active (biochemical)” value in experiment [2] is recorded as “Yes”. Moreover, in experiment [2] (read-out: C. alb EC50), the EC50 worked out at 1.12 µM.

With `Cc1ccccc1-c1cc(Nc2cc(O)cc(O)c2C(=O)N2Cc3cn[nH]c3C2)n(C)n1` [Compound 108, 5-((1-Methyl-3-(2-methylphenyl)-1H-pyrazol-5-yl)amino)-4-(1H,4H,5H,6H-pyrrolo[3,4-c]pyrazole-5-carbonyl)benzene-1,3-diol], the “C. alb Active (biochemical)” value in experiment [2] is recorded as “Yes”. For the same compound, in experiment [1], the MIC80 is greater than 25 µM and the MIC90 is greater than 25 µM.

In the case of `CC(C)(C)n1nc(-c2ccccc2)cc1Nc1cc(O)cc(O)c1C(=O)N1Cc2cccnc2C1` [Compound 94, 5-((1-tert-Butyl-3-phenyl-1H-pyrazol-5-yl)amino)-4-(5H,6H,7H-pyrrolo[3,4-b]pyridine-6-carbonyl)benzene-1,3-diol], the “C. alb Active (biochemical)” value in experiment [2] is “Yes”. Besides, in experiment [1], the MIC80 was greater than 25 µM and the MIC90 was greater than 25 µM.

Turning to `Cc1ccc(F)c(-c2cc(Nc3cc(O)cc(O)c3C(=O)N3Cc4ccccc4C3)n(C)n2)c1` [ACSM01268], the “C. alb Active (biochemical)” value in experiment [2] is “Yes”. The concentration for a half-maximal effect (EC50) in experiment [2] (read-out: C. alb EC50) was 1.68 µM.

For `Cn1nc(-c2ccccc2)cc1Nc1cc(O)cc(O)c1C(=O)N1Cc2cn[nH]c2C1` [Compound 93, 5-((1-Methyl-3-phenyl-1H-pyrazol-5-yl)amino)-4-(1H,4H,5H,6H-pyrrolo[3,4-c]pyrazole-5-carbonyl)benzene-1,3-diol], the “C. alb Active (biochemical)” value in experiment [2] is listed as “Yes”. In addition, in experiment [1], the MIC80 is greater than 25 µM and the MIC90 is greater than 25 µM.

`Cn1nc(-c2cccc(F)c2F)cc1Nc1cc(O)cc(O)c1C(=O)N1Cc2ccccc2C1` [ACSM01269]: in experiment [2], the “C. alb Active (biochemical)” value is listed as “Yes”. Also, in experiment [2] (read-out: C. alb EC50), the EC50 was found to be 2.21 µM.

With `Cc1ccccc1-c1cc(Nc2cc(O)cc(O)c2C(=O)N2Cc3cccnc3C2)n(C)n1` [Compound 107, 5-((1-Methyl-3-(2-methylphenyl)-1H-pyrazol-5-yl)amino)-4-(5H,6H,7H-pyrrolo[3,4-b]pyridine-6-carbonyl)benzene-1,3-diol], the “C. alb Active (biochemical)” value in experiment [2] is given as “Yes”. For the same compound, in experiment [1], the MIC80 is greater than 25 µM and the MIC90 was greater than 25 µM.

`Cc1ccc(-c2cc(Nc3cc(O)cc(O)c3C(=O)N3Cc4cccnc4C3)n(C)n2)cc1` [Compound 119, 5-((1-Methyl-3-(4-methylphenyl)-1H-pyrazol-5-yl)amino)-4-(5H,6H,7H-pyrrolo[3,4-b]pyridine-6-carbonyl)benzene-1,3-diol]: the “C. alb Active (biochemical)” value in experiment [2] is “Yes”. Also, in experiment [1], the MIC80 is greater than 25 µM and the MIC90 was greater than 25 µM.

In the case of `Cn1nc(-c2ccccc2)cc1Nc1cc(O)cc(O)c1C(=O)N1Cc2cccnc2C1` [Compound 92, 5-((1-Methyl-3-phenyl-1H-pyrazol-5-yl)amino)-4-(5H,6H,7H-pyrrolo[3,4-b]pyridine-6-carbonyl)benzene-1,3-diol], the “C. alb Active (biochemical)” value in experiment [2] was “Yes”. Moreover, in experiment [1], the MIC80 is greater than 25 µM and the MIC90 is greater than 25 µM.

As to `Cc1ccc(-c2cc(Nc3cc(O)cc(O)c3C(=O)N3Cc4ccccc4C3)n(C)n2)cc1` [Compound 118, 4-(2,3-Dihydro-1H-isoindole-2-carbonyl)-5-((1-methyl-3-(4-methylphenyl)-1H-pyrazol-5-yl)amino)benzene-1,3-diol], in experiment [2], the “C. alb Active (biochemical)” value is on record as “Yes”. In experiment [1], the MIC80 was greater than 25 µM and the MIC90 is greater than 25 µM.

Take `Cn1nc(-c2cccc(Cl)c2)cc1Nc1cc(O)cc(O)c1C(=O)N1Cc2ccccc2C1` [ACSM01362]: the “C. alb Active (biochemical)” value in experiment [2] is recorded as “Yes”. In addition, the EC50 in experiment [2] (read-out: C. alb EC50) was 4.17 µM.

For `COc1ccc(Cn2nc(C)cc2Nc2cc(O)cc(O)c2C(=O)N(C)CC2CC2)cc1` [Compound 30, N-(Cyclopropylmethyl)-2,4-dihydroxy-6-((1-((4-methoxyphenyl)methyl)-3-methyl-1H-pyrazol-5-yl)amino)-N-methylbenzamide], the EC50 in experiment [2] (setting [3]) and in experiment [2] (read-out: C. alb EC50) was greater than 9 µM each time. Also, in experiment [2], the “C. alb Active (biochemical)” value is “No”. Moreover, the MIC80 in experiment [1] is greater than 25 µM. Also, in experiment [1], the MIC90 is greater than 25 µM.

As for `Cc1ccccc1-c1cc(Nc2cc(O)cc(O)c2C(=O)N2Cc3ccc(F)cc3C2)n(C)n1` [ACSM01135], in experiment [2], the “C. alb Active (biochemical)” value is “Yes”. In addition, the concentration for a half-maximal effect (EC50) in experiment [2] (read-out: C. alb EC50) is 0.904 µM.

Take `Cc1cccc(-c2cc(Nc3cc(O)cc(O)c3C(=O)N3Cc4ccccc4C3)n(C)n2)c1C` [ACSM01272]: in experiment [2], the “C. alb Active (biochemical)” value is “Yes”. The EC50 in experiment [2] (read-out: C. alb EC50) is 6.2 µM.

As to `Cc1cccc(-c2cc(Nc3cc(O)cc(O)c3C(=O)N3Cc4ccccc4C3)n(C)n2)c1F` [ACSM01273], in experiment [2], the “C. alb Active (biochemical)” value is listed as “Yes”.

As a reminder, the MIC80 is an inhibitory concentration at the 80% level, which refers to growth in some studies and to a panel of isolates in others. As usually defined, the MIC90 is an inhibitory concentration at the 90% level, which refers to growth in some studies and to a panel of isolates in others. What is called EC50 is the concentration at which the effect is half-maximal.
